# “Also recorded” adds a separate entry of the source.
# Assays:
# NK cells and T cells = experiment: Flow cytometry assay of lymphocyte apoptosis induced by Hp(2-20)-activated monocytes; format: cell-based, human
# From the text: (§1) Peripheral blood was obtained from healthy blood donors at Sahlgren's Hospital, Göteborg, Sweden. […] See Hansson et al. 1996. […] J Immunol. 156:427.
# Apoptosis was monitored by use of flow cytometry, as described elsewhere. See Mellqvist et al. 2000. […] Blood. 96:1961-8. T cells or NK cells were gated after exposure to monocytes, and the gate was set to comprise lymphocytes with a reduced forward scatter and an increased right angle scatter characteristic of apoptosis. See Hansson et al. 1996. Two additional methods were used to determine apoptosis in NK cells and T cells: analysis of DNA strand breaks by terminal deoxynucleotidyl transferase-mediated bromolated dUTP nick end labelling of DNA fragments (TUNEL assay) and Annexin V staining, as described elsewhere. See Mellqvist et al.; Hansson et al. 1999. […] J Interferon Cytokine Res. 19:1135-44.
# One million cells were stained with appropriate fluorescein isothiocyanate (FITC)- and phycoerythrin (PE)-conjugated monoclonal antibodies (Becton & Dickinson, Stockholm, Sweden; 10 μl/10^6 cells), as described in detail elsewhere. See Hansson et al. 1999. Cells were analyzed by use of flow cytometry on a FACSort with a Lysys II software program (Becton & Dickinson). Lymphocytes were gated on the basis of forward and right angle scatter. The flow rate was adjusted to <200 cells x s^−1 and at least 5×10^3 cells were analyzed for each sample.
# After incubation, cells in a lymphocyte gate were assayed for morphological features of apoptosis (reduced forward and increased right angle scatter) by use of flow cytometry. In A, data are the frequency of apoptotic CD56^+ (NK; dark gray bars) or CD3ε^+ (T; open bars) after the following treatments:
# Monocytes and/or lymphocytes were prepared as described in Methods. After incubation for 16 hrs, cells in a lymphocyte gate were assayed for morphological features of apoptosis (reduced forward and increased right angle scatter) by use of flow cytometry. Data are the frequency of apoptotic lymphocytes. histamine dihydrochloride, ranitidine, and Hp(2-20) were used at 50 μM, catalase at 100 U/ml, and SOD at 50 U/ml.
# [1] = system: NADPH-oxidase activity of monocytes; experiment: NADPH-oxidase activity of monocytes, isoluminol-enhanced chemiluminescence; format: cell-based, human
# Description: as §1
# NADPH-oxidase activity was determined using an isoluminol-enhanced chemiluminescence (CL) system that quantitates extracellular reactive oxygen species (ROS). See Dahlgren, C., Karlsson, A. 1999. Respiratory burst in human neutrophils. J Immunol Methods 232:3-14.
# Superoxide anion production in elutriated monocytes was investigated by isoluminol-amplified CL (A). Cells were treated with histamine (50 μM) or the histamine H2 receptor antagonist ranitidine (50 μM).
# Chlamidia trachomatis = details: ophthalmic solution 0.09% by weight, containing erythromycin, every three hours
# Description: A subject presenting an eye infection due to Chlamidia trachomatis is treated with the compositions of the described embodiment using an ophthalmic solution of histamine dihydrochloride at 0.09% by weight of formulation. Commercially available ophthalmic solutions are well known in the art. Additionally, the ophthalmic solution, preferably in drop form, contains erythromycin. Application of the solution to the eye occurs every three hours. A solution containing only the ROM production and release inhibiting compound is given hourly to ease the discomfort of the subject.
# Tinea infection = details: cream, 0.08% by weight, topical four to five times a day
# From the text: Treatment of the subjects consists of the topical application of the medication four to five times a day at the lesion site. When treating fungal growths, care is taken not to contaminate new areas with fungal spores.
# microbial infections = details: 0.08% by weight together with antimicrobial
# Description: The ability of the ROM production and release inhibition compounds of the described embodiment to increase the effectiveness of antimicrobials is evaluated in two groups of 10 subjects each. No subjects are suffering from active infections at the initiation of the study. Group I subjects receive the type of antimicrobial used in treating the specific infection according to the dosage given by the manufacturer. […] The healing time of the patient in each group is then monitored.
# NADPH oxidase = NADPH oxidase (Homo sapiens, UniProt P04839); details: membrane-bound phagocyte oxidase, substrate; cited from earlier work
# [2] = system: Arcanobacterium haemolyticum; details: reported in the literature; cited from earlier work
# Helicobacter pylori = experiment: Treatment of ulcers caused by Helicobacter pylori, oral controlled release device; format: in vivo; details: in combination with chemotherapeutics
# Description: A patient diagnosed with ulcers caused by Helicobacter pylori is treated with the compounds of the described embodiment. A controlled release mechanism is replenished with an effective dose of the ROM inhibitory compound NADPH oxidase inhibitor diphenlyeneiodonium and administered to the patient by oral intake of the device. As the device rests in the patient's stomach it simultaneously delivers the compounds of the described embodiment and decomposes in order to allow excretion from the body. The compounds of the described embodiment are administered in combination with chemotherapeutics typically administered for such an infection, such as amoxycillin, clarithromycin, tetracycline, or metronidazole.
# Streptococcus pneumonia = experiment: Treatment of Streptococcus pneumonia lung infection using a nebulizer; format: in vivo; details: 0.05% by weight, mist through a nebulizer
# Description: A subject diagnosed with Streptococcus pneumonia is treated with compounds of the described embodiment in the form of a nebulizer. The nebulizer is held firmly against the oral-nasal cavities of a patient with a respiratory infection. The nebulizer is used to deliver an aerosol mist as the patient inhales deeply. The aerosol mist contains either solely an effective amount of the preparation herein described or a mixture of the preparation and the chemotherapeutic used often administered for such an infection, such as, cephalexin. The ROM inhibitory compound NADPH oxidase inhibitor diphenlyeneiodonium in a concentration of 0.05% by weight of formulation is delivered as a mist in the patients lungs through a nebulizer.
# [3] = system: diarrhea-causing pathogens (Escherichia coli, Salmonella, Shigella or the like); experiment: Treatment of diarrhea by oral administration of a capsule; format: in vivo; details: capsule 0.8% by weight, three to ten per day for seven to thirty days, with chemotherapeutic
# Description: A subject suffering from diarrhea due to any number of pathogenic geni, speci, or strain of Escherichia coli, Proteus mirabilis, Salmonella enteritidis, Klebsiella Yersinia, Shigella, Serratia, Candida, Giardia intestinalis, Cryptosporidium, Vibrio cholera, Campylobacter, Ascaris or the like responsible for gastrointestinal distress in the form of diarrhea or the like is treated with a capsule containing the ROM inhibitory compound NADPH oxidase inhibitor diphenlyeneiodonium in a concentration of 0.8% by weight of formulation in addition to administration of the appropriate chemotherapeutic compound, such as an aminoglycoside, chloramphenicol, trimethoprimsulfa-methoxazole, doxycycline, or a fluoroquinolone. The treatment consists of oral intake of three to ten capsules per day for a period of seven to thirty days (depending the causative agent of the infection).
# Streptococcus mutans = experiment: Treatment of dental carries using a toothpaste and mouthwash; format: in vivo; details: toothpaste and mouthwash 0.05% by weight, five times per day for seven days
# Description: A subject suffering from dental carries due to Streptococcus mutans is treated with a toothpaste and a mouthwash containing the ROM inhibitory compound NADPH oxidase inhibitor diphenlyeneiodonium in a concentration of 0.05% by weight of formulation. The treatment consists of five tooth brushings with this toothpaste and mouthwash applications per day for a period of seven days.
# S somaliensis = details: McNeil and Brown 1994; cited from earlier work
# [4] = system: NADPH-oxidase activity of monocytes; details: earlier finding, Bylund et al. 2001; cited from earlier work
# [5] = ranitidine 50 μM with histamine 50 μM
# [6] = histamine 50 μM, catalase 100 U/ml, SOD 50 U/ml, Hp(2-20) 50 μM, 16 hrs
compound,measurement,setting,value
"Cl.Cl.NCCc1c[nH]cn1 [Histamine, Histamine dihydrochloride]","Protection of NK cells and T cells from monocyte-dependent, Hp(2-20)-induced apoptosis",NK cells and T cells; dihydrochloride,resuced T cells and NK cells from apoptosis; also recorded: protected NK cells/T cells from the monocyte-induced apoptosis; also recorded: prevent the triggering of NK cell and T cell apoptosis; also recorded: protect T cells and NK cells from apoptotic cell death
same,Inhibition of Hp(2-20)-induced oxygen radical formation in monocytes,"[1]; histamine 50 μM, elutriated monocytes, dihydrochloride",markedly inhibited; also recorded: reduce or inhibit
same,"Time period of bacterial eye infection, damage and discomfort",Chlamidia trachomatis,reduces the time period of bacterial infection
same,Healing time compared to the control group,Tinea infection,decrease in healing time
same,Healing time with antimicrobial plus ROM inhibitory composition versus antimicrobial alone,microbial infections,faster healing time
NC(=O)C1=CN([C@@H]2O[C@H](COP(=O)(O)OP(=O)(O)OC[C@H]3O[C@@H](n4cnc5c(N)ncnc54)[C@H](O)[C@@H]3O)[C@@H](O)[C@H]2O)C=CC1 [NADH],Km,NADPH oxidase,450 µM
NC(=O)C1=CN([C@@H]2O[C@H](COP(=O)(O)OP(=O)(O)OC[C@H]3O[C@@H](n4cnc5c(N)ncnc54)[C@H](OP(=O)(O)O)[C@@H]3O)[C@@H](O)[C@H]2O)C=CC1 [NADPH],Km,NADPH oxidase,45 µM
O=C(N[C@H](CO)[C@H](O)c1ccc([N+](=O)[O-])cc1)C(Cl)Cl [chloramphenicol],Susceptibility of A. haemolyticum,[2],uniformly susceptible
c1ccc2c(c1)[I+]c1ccccc1-2 [diphenlyeneiodonium],Treatment of gastrointestinal ulcers,Helicobacter pylori,effective in expediting the treatment of gastrointestinal ulcers
same,Recovery of a patient with pneumonia,Streptococcus pneumonia,hastens the recovery
same,Treatment of diarrhea,[3],effective in accelerating the treatment of diarrhea
same,Treatment of dental carries,Streptococcus mutans,effective in treating the dental carrier
CC[C@H]1OC(=O)[C@H](C)[C@@H](O[C@H]2C[C@@](C)(OC)[C@@H](O)[C@H](C)O2)[C@H](C)[C@@H](O[C@@H]2O[C@H](C)C[C@H](N(C)C)[C@H]2O)[C@](C)(O)C[C@@H](C)C(=O)[C@H](C)[C@@H](O)[C@]1(C)O [erythromycin],In vitro sensitivity of S somaliensis,S somaliensis,sensitive
CC(=O)O[C@H]1C[C@@]2(C)[C@@H](C[C@@H](O)[C@H]3[C@@]4(C)CC[C@@H](O)[C@@H](C)[C@@H]4CC[C@@]32C)/C1=C(\CCC=C(C)C)C(=O)O [fusidic acid],In vitro sensitivity of S somaliensis,S somaliensis,sensitive
same,Susceptibility of A. haemolyticum,[2],uniformly susceptible
"CNC(=C[N+](=O)[O-])NCCSCc1ccc(CN(C)C)o1.Cl [ranitidine, ranitidine hydrochloride]",Effect on the histamine-induced protection of T cells and NK cells from apoptosis,NK cells and T cells; [5],antagonized
same,Effect on histamine's inhibition of Hp(2-20)-induced oxygen radical formation,[1]; [5],reversed the inhibition
[H]/N=C(/N)N[C@H]1[C@H](O)[C@@H](O)[C@H](O[C@@H]2O[C@@H](C)[C@](O)(C=O)[C@H]2O[C@@H]2O[C@@H](CO)[C@H](O)[C@@H](O)[C@@H]2NC)[C@@H](N/C(N)=N\[H])[C@@H]1O [streptomycin],In vitro sensitivity of S somaliensis,S somaliensis,sensitive
NC[C@H]1O[C@H](O[C@H]2[C@H](O)[C@@H](O[C@H]3O[C@H](CO)[C@@H](O)[C@H](N)[C@H]3O)[C@H](N)C[C@@H]2N)[C@H](N)C[C@@H]1O [tobramycin],In vitro sensitivity of S somaliensis,S somaliensis,sensitive
COc1cc(Cc2cnc(N)nc2N)cc(OC)c1OC [trimethoprim],In vitro sensitivity of S somaliensis,S somaliensis,resistant
"AKKVFKRLEKLFSKIQNDK [Hp(2-20), cecropin-like peptide derived from Helicobacter pylori]",Induction of NK cell and T cell apoptosis by monocytes treated with the peptide,"NK cells and T cells; Hp(2-20) 50 μM, lymphocytes + 25% or 50% monocytes, overnight (16 hrs) incubation",induces apoptosis of T lymphocytes with CD3ε^+ phenotype and natural killer cells with CD56^+ phenotype; also recorded: triggers programmed cell death (apoptosis) of NK cells and T cells; also recorded: pronounced in NK cells as well as in CD3ε^+ T cells; also recorded: triggered NK cell and T cell death by apoptosis
same,Superoxide anion formation in phagocytic cells,[4],potently triggers superoxide anion formation
Superoxide dismutase [SOD],"Protection of NK cells and T cells from monocyte-dependent, Hp(2-20)-induced apoptosis",NK cells and T cells; [6],completely prevented
catalase,"Protection of NK cells and T cells from monocyte-dependent, Hp(2-20)-induced apoptosis",NK cells and T cells; [6],completely prevented
